The test concerns the target T1, orotidine monophosphate decarboxylase (Mus musculus, UniProt P13439).
T1 construct: OMP decarboxylase domain of UMP synthase
As to the kind of experiment: In vitro orotidine monophosphate decarboxylase activity. The format is biochemical. The settings on record: 0.25 to 1.0 mM. Here is the method: CF1 male mice (~30 g) were implanted with 2×10^6 Ehrlich ascites tumor cells, intraperitoneally on Day 0. Compound I was suspended by homogenation in 0.05% polysorbate.80-water and administered intraperitoneally at 10 and 20 mg/kg for 9 days to determine its effectiveness for inhibition of tumor growth. Mice were sacrificed on Day 10, and the ascites fluid was collected from the peritoneal cavity. The volume and ascrit (packed cell volume) were determined for each animal and the percent inhibition of tumor growth was calculated. For the metabolic studies, mice were treated on Days 8 and 9 with 10 mg/kg of Compound I, intraperitoneally. […]
Carbamyl phosphate synthetase activity was determined using the reaction medium of Kalman et al [Am. […] Citrulline formed from ornithine was measured at 490 nm by the method of Archibald [J. Biol. Chem., 156, 121 (1944)]. […] The ^14 CO2 generated in 15 min was trapped in 1M KOH and counted. Thymidylate synthetase activity was determined using a post-mitochondrial supernatant (9000 g×10 min) and 5 μCi of 5-^3 H-deoxyuridine monophosphate (14 Ci/mmol) according to the method of Kampf et al [ J. Med. Chem., 19, 903 (1976)]. ^14 C-Formate incorporation into purines was determined by the method of Spassova et al [Biochem. Pharmacol., 25, 923 (1976)] using 0.5 μCi of ^14 C-formic acid (52.0 mCi/mmol). […] The Rf value for xanthine monophosphate was scraped and counted. […]

These results are taken from patent US4550186A, “Binuclear copper (II) carboxylates formed from amine-carboxyboranes” (Duke University, priority 1983, dated 1985).

T1 sequence (P13439 whole entry, the tested form may be a part): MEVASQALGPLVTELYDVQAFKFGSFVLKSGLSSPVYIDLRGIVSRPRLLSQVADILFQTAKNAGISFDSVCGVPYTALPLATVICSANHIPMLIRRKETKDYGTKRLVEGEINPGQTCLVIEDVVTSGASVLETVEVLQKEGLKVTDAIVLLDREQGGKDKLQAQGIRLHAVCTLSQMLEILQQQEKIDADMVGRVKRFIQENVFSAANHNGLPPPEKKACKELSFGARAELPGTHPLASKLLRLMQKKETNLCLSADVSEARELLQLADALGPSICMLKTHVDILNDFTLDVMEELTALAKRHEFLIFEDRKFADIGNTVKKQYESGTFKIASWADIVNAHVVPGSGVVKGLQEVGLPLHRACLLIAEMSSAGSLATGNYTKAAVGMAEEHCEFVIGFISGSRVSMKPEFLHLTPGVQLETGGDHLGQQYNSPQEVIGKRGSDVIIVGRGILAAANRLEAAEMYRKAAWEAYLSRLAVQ

Consider “{Cu[(CH3)3 N.BH2 CO2 ]2.(CH3)3 N.BH2 COOH} [Compound I]”, for which the “orotidine monophosphate decarboxylase inhibition” value is listed as “not inhibited”.
